Source: patent publication US10233202B2, “Tenofovir monobenzyl ester phosphamide prodrug, preparation method and use thereof” (JIANGSU TASLY DIYI PHARMACEUTICAL CO., LTD., priority 2015, dated 2019)
pEC50, pIC50: −log10 of the molar value. Where a name gives a salt, the structure may show the parent alone. Read-outs that look alike come from different tables or passages of the source.

Assays:
[1] = Stability in the human liver S9; type: in vitro ADME; settings: human liver S9, 1 μM
Experimental: (§1) The following stability test were carried out according to the prior art, and the data of the stability test shown in the table were the residue percentages after the test compounds were incubated for different period of time under the test condition.

[2] = in vitro; type: cell-based; settings: human, HepG2.2.15 cells; for CC50: Cell-titer Blue on 8th day, Table 3
Experimental: (§2) The concentration of HBV DNA in the HepG2.2.15 cell supernatant was detected through the real-time fluorescence quantitative PCR (qPCR) method to determine the anti-HBV activity of the compound in the HepG2.2.15 cells, and the effect of the testing compounds to the HepG2.2.15 cell activity was detected through Cell-titer Blue.
(§3) 8.1. Dilution of the compounds: the initial concentration of each compound in the in vitro anti-HBV activity test was 1 μM, with 3-fold serial dilution to 8 concentrations; the initial concentration of each compound in the cytotoxicity test was 100 μM, with 3-fold serial dilution to 8 concentrations; DMSO was used for the dilution of the compound mother liquor. The initial concentrations of the reference compound TDF for the anti-HBV activity test in vitro and the cytotoxicity test were all set at 0.2 μM, with 3-fold serial dilution to 8 concentrations.
(§4) 8.3. Treatment of the cells in the cell viability test: the HepG2.2.15 cells were plated in the 96-well plate (4×10^4 cells/well), and cultured overnight at 37° C. in 5% CO2. On 2nd day, fresh culture solutions containing compounds of different concentrations were added to the culture wells. See Table 3 for the compound distribution. On 5th day, the used culture solutions in the culture wells were sucked and discarded, and fresh culture solutions containing compounds of different concentrations were added. On 8th day, Cell-titer Blue agent was added to each well, and the microplate reader was used to detect the fluorescence value of each well.
(§5) The cell viability percentage was calculated using the following formula: % cell viability=(fluorescence of sample−fluorescence of medium control)/(fluorescence of DMSO control−fluorescence of medium control)[…] 100%
(§6) 9.2 Test method: the test was carried out according to the procedure in example 1.

[3] = tested on: HepG2.2.15 cells; experiment: in vitro; type: cell-based; settings: comparative test, Table 4
Experimental: as §2, §3, §4, §5, §6

[4] = Cell viability test in MT-4 cells (CellTiter Glo); type: cell-based; settings: human
Experimental: 9.3. Treatment of the cells in the cell viability test: parallel tests were carried out using the same method as that in 9.2, except that the 96-well plate containing the compounds of different concentrations were replaced with the blank 96-well plate, and CellTiter Glo was used to determine the cell viability to calculate the CC50 value.
(§7) 9.4. Data analysis and calculation of the inhibition percentage: the activity percentage was calculated using the following formula: Activity (%) =(Raw datacpd−AverageVC)/(AverageCC−AverageVC)*100Cell Viability (%)=Raw datacpd/AverageCC*100

[5] = Stability in the simulated gastric fluid; type: in vitro ADME; settings: 10 μM
Experimental: as §1

[6] = Stability in the human blood; type: in vitro ADME; settings: 2 μM
Experimental: as §1

[7] = Stability in the simulated intestinal fluid; type: in vitro ADME; settings: 10 μM
Experimental: as §1

[8] = tested on: HIV-1 IIIB; experiment: In vitro anti-HIV activity test in MT-4 cells infected with HIV-1 IIIB (CellTiter Glo); type: cell-based
Experimental: 9.1. Dilution and concentrations of the compounds and the reference compound (CN01813161GS-7340, TDF) were the same as those in example 1.
9.2. In vitro anti-HIV activity test: after MT-4 cells were infected with 24 TCID50HIV-1 IIIB/1×10^5 cells (2.4 TCID50/well) at 37° C. for 1 hour, they were plated in the 96-well plate containing the compounds of different concentrations ([…]) and cultured at 37° C. in 5% CO2 for 5 days. CellTiter Glo was used to determine the activity to calculate the EC50 value.
as §7

[9] = tested on: HBV; experiment: Cell based anti-HBV activity test, HBV DNA in HepG2.2.15 cell supernatant by qPCR; settings: Hepatitis B virus
Experimental: as §3
8.2. Anti-HBV activity test in vitro: the HepG2.2.15 cells were plated in the 96-well plate (4×10^4 cells/well), and cultured overnight at 37° C. in 5% CO2. On second day, fresh culture solutions containing compounds of different concentrations were added to the culture wells. See Table 2 for the compound distribution. On 5th day, the used culture solutions in the culture wells were sucked and discarded, and fresh culture solutions containing compounds of different concentrations were added. On 8th day, the supernatant in the culture wells was collected for the extraction of HBV DNA in the supernatant. qPCR test was used to detect the concentration of HBV DNA content in the HepG2.2.15 supernatant.
8.4. Data analysis and calculation of the inhibition percentage and relative cell viability: The inhibition percentage was calculated using the following formula: % Inh.=[(HBV quantity of DMSO control−HBV quantity of sample)/HBV quantity of DMSO control]×100%
9.1 Drugs: the dilution method and concentrations of compound 3, the reference compound (CN201380030061.6, and the compound shown in claim 36 (abbreviation: compound 7), and the isomer thereof) were the same as those in example 1.
as §6

[10] = target: hERG K-channel (Homo sapiens, UniProt Q12809); experiment: hERG manual whole-cell patch clamp in CHO cells (cardiotoxicity study); settings: IC50, hERG current, room temperature
Experimental: The CHO cells obtained from AVivaBiosciences that could stably express the hERG K-channel were used in the test, and the cells were incubated at 37° C. in 5% CO2 and under constant humidity.
The final concentration of DMSO in the extracellular fluid was not higher than 0.30%.
The whole-cell patch clamp technique was used on the Multiclamp patch-clamp amplifier to test the compound at room temperature, the output signal was digitalized using the DIgiDAta 1440 A/D-D/A plate, and the Pclamp10 software was used for the control of the recording. The minimum sealing resistance was set at 500 MOh/ms, and the minimum specific hERG current was set at 0.4 nA for quality control.
Clampfit (V10.2, Molecular Devices), Excel 2003 and GraphPad Prism 5.0 were used for the data analysis. The calculation formula of the current: I/Icontrol=Bottom+(Top−Bottom)/(1+10^((LogIC50−Log C)*Hillslope

[11] = oral, after intestinal absorption; cited from earlier work
[12] = Human immunodeficiency virus 1, MT4, 120 h, MT-4 cells infected with HIV-1 IIIB, 5 days, read-out: EC50
[13] = HepG2.2.15, HepG2.2.15 cells, comparative test, Table 4, read-out: EC50

Chain of hERG K-channel (Q12809 whole entry): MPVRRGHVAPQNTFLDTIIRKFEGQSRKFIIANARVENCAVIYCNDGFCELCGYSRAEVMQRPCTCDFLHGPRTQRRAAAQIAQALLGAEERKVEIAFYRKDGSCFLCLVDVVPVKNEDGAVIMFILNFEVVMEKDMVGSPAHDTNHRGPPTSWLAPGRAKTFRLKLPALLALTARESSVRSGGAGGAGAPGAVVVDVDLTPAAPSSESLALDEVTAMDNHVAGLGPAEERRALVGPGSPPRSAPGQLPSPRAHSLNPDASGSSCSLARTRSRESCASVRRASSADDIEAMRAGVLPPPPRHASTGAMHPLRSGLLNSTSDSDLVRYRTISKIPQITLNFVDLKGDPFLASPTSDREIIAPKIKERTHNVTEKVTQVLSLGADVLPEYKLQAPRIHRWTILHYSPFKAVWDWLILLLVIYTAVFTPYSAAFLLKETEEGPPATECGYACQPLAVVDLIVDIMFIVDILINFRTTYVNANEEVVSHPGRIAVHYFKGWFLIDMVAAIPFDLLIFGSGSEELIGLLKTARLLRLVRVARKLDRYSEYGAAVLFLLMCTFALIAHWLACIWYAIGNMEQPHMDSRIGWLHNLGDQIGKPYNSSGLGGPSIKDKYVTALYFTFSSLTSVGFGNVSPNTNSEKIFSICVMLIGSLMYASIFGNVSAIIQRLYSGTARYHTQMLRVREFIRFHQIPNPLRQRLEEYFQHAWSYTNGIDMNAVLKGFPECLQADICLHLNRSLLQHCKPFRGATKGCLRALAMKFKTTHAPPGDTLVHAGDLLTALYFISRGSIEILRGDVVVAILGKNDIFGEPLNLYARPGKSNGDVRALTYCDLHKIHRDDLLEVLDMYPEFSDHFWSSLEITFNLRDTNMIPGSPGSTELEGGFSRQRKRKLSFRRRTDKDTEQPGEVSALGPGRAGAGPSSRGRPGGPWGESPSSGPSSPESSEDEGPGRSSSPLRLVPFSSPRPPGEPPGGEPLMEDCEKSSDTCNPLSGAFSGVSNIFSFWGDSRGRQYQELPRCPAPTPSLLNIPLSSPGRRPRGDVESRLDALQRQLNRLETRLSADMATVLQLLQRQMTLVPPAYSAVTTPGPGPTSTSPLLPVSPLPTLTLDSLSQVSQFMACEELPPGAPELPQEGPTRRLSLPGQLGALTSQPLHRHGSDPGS

| Compound | CLlint(s9) [1] [µL/min/mg] | half-life at 1 μM [1] [min] | Remaining (T = 60 min) [1] [%] | CLlint(s9) ([1]; scaled per kg) [mL/min/kg] | CC50 at 5 days [4] [µM] | % 0 min (residue percentage) [5] [%] | % 60 min (residue percentage) [5] [%] | % 120 min (residue percentage) [5] [%] | % 360 min (residue percentage) [5] [%] | % 1440 min (residue percentage) [5] [%] | % 0 min (residue percentage) [6] [%] | % 10 min (residue percentage) [6] [%] | % 30 min (residue percentage) [6] [%] | % 60 min (residue percentage) [6] [%] | % 120 min (residue percentage) [6] [%] | % 0 min (residue percentage) [7] [%] | % 60 min (residue percentage) [7] [%] | % 120 min (residue percentage) [7] [%] | % 360 min (residue percentage) [7] [%] | % 1440 min (residue percentage) [7] [%] | other results |
| --- | --- | --- | --- | --- | --- | --- | --- | --- | --- | --- | --- | --- | --- | --- | --- | --- | --- | --- | --- | --- | --- |
| CC(C)OC(=O)[C@H](C)N[P@@](=O)(CO[C@H](C)Cn1cnc2c(N)ncnc21)OCc1ccccc1 (single isomer, unassigned) [Compound 3a] | 70.0 | 9.9 | 6 | 0.2464 | 22.5 | 100 | 85.40 | 58.07 | 14.41 | 0.00 | 100 | 97.4 | 98.9 | 97.8 | 94.5 | 100 | 53.62 | 23.45 | 1.26 | 0.00 | CC50 [2]: > 100 µM; CC50 [3]: > 100 µM; pEC50 [8, 12]: 8.29; pEC50 [9, 13]: 8.47; pIC50 [10]: < 5.00 |
| CC(C)OC(=O)[C@H](C)N[P@](=O)(CO[C@H](C)Cn1cnc2c(N)ncnc21)OCc1ccccc1 (single isomer, unassigned) [Compound 3b] | 68.6 | 10.1 | 9 | 0.2415 | 16.9 | 100 | 84.26 | 58.54 | 17.28 | 0.00 | 100 | 97.1 | 96.4 | 96.1 | 93.7 | 100 | 51.07 | 20.20 | 0.23 | 0.00 | CC50 [2]: > 100 µM; CC50 [3]: > 100 µM; pEC50 [8, 12]: 8.01; pEC50 ([9]; HepG2.2.15, HepG2.2.15 cells, HBV DNA in supernatant on 8th day, Table 3, read-out: EC50): > 8.00; pEC50 [9, 13]: 8.22; pIC50 [10]: < 4.52 |
| CC(C)OC(=O)[C@H](C)N[P@](=O)(CO[C@H](C)Cn1cnc2c(N)ncnc21)Oc1ccccc1 [GS-7340] | 211.0 | 3.3 | 4 | 0.7427 | 13.3 | 100 | 95.40 | 66.36 | 23.41 | 0.19 | 100 | 93.2 | 91.0 | 90.3 | 90.0 | 100 | 30.09 | 6.22 | 0.06 | 0.00 | CC50 at 6 days ([2]; comparative test, Table 4): > 100 µM; pEC50 ([8]; Human immunodeficiency virus 1, IIIB, MT4, 120 h): 7.85; pEC50 ([9]; HepG2.2.15): 7.75; pIC50 [10]: < 5.00 |
| CC(C)OC(=O)OCOP(=O)(CO[C@H](C)Cn1cnc2c(N)ncnc21)OCOC(=O)OC(C)C [TDF, Tenofovir Disoproxil Fumarate] | – | – | – | – | 21.3 | – | – | – | – | – | – | – | – | – | – | – | – | – | – | – | fraction excreted out of the body in original form [11]: ~80%; fraction metabolized and activated into the Tenofovir parent drug under the action of esterase [11]: less than 20%; pEC50 [8, 12]: 7.77 |
